Data taken from patent US20130269058A1, “PLANTS RESISTANT TO FUNGAL PATHOGENS AND METHODS FOR PRODUCTION THEREOF” (GENOPLANTE-VALOR, priority 2010, published 2013).

How the values were obtained:
WAK91 gene expression = assay: Chitin sprayed on healthy rice plants; WAK91 expression by QRT-PCR normalized by actin; type: in vivo, rice (Oryza sativa L., cultivar Nipponbare)
Method: (§1) FIG. 2: Chitin induces WAK91 expression. Chitin fragments (two concentrations) were sprayed on healthy rice plants. Chitin alone is sufficient to induce WAK91 (up to 4×) in entire plants after 15 minutes. The PR5 and PDX223 classical defense genes are induced later. (A) The expression value of the WAK91, PR5 and PDX223 gene expression (normalized by actin) was measured at the indicated time after treatment. (B) The expression value after chitin treatment was divided by the expression value in untreated plants and the ratio was log transformed.
(§2) Gene expression was performed using Quantitative RT-PCR as described in Vergne et al (2007). For RT-QPCR applications, frozen tissue were ground in liquid nitrogen. Approximately 500 μl of powder was then treated with 1 ml of TRIZOL supplied by Invitrogen, vortexed for 30 s and incubated at room temperature for 15 minutes. […] Two microlitres of cDNA (dilution 1/10) were then used for quantitative RT-PCR. Quantitative RT-PCR mixtures contained PCR buffer, dNTP (0.25 mM), MgCl2 (2.5 mM), forward and reverse primers ([…]), 1 U of HotGoldStar polymerase and SYBR Green PCR mix as per the manufacturer's recommendations (Eurogentec, Seraing, Belgium). […] The quantitative RT-PCR (QRT-PCR) reactions were performed using a MX3000P machine (Stratagene) and data were extracted using the MX3000P software. […]

[1] = tested on: PR5 and PDX223 classical defense genes; assay: Chitin sprayed on healthy rice plants; defense gene expression by QRT-PCR normalized by actin; type: in vivo, rice (Oryza sativa L., cultivar Nipponbare); conditions: chitin fragments sprayed on healthy rice plants; timing relative to WAK91 induction
Method: as §1, §2

chitin
induction of WAK91 expression (WAK91 gene expression; chitin fragments (two concentrations) sprayed on healthy rice plants, entire plants, after 15 minutes, versus untreated plants): up to 4 × | WAK91 induction (in words) (WAK91 gene expression; chitin used as described in Miya et al (2007), FIG. 2): sufficient to cause WAK91 induction | induction of PR5 and PDX223 defense genes (in words) [1]: induced later
